Laboratory results taken from article PMC6225228, “Design, Synthesis and Evaluation of N-pyrazinylbenzamides as Potential Antimycobacterial Agents” (Molecules : A Journal of Synthetic Chemistry and Natural …, 2018).
Converted amounts (≈) assume the structure as drawn. Where two headings read alike, the source gives them in different places.

Experiments:
Candida glabrata 20/I = assay: Antifungal microdilution broth, CG; type: cell-based; details: Nakaseomyces glabratus, 20/I, read-out: MIC CG
[1] = test system: Trichophyton interdigitale 445; assay: Antifungal microdilution broth, TI; type: cell-based; details: read-out: MIC TI
Candida krusei E28 = assay: Antifungal microdilution broth, CK; type: cell-based; details: Pichia kudriavzevii, read-out: MIC CK
[2] = test system: Lichtheimia corymbifera 272; assay: Antifungal microdilution broth, LC; type: cell-based; details: read-out: MIC LC
[3] = test system: Candida albicans ATCC 44859; assay: Antifungal microdilution broth, CA; type: cell-based; details: Candida albicans, read-out: MIC CA
Candida tropicalis 156 = assay: Antifungal microdilution broth, CT; type: cell-based; details: read-out: MIC CT
[4] = test system: Aspergillus fumigatus 231; assay: Antifungal microdilution broth, AF; type: cell-based; details: read-out: MIC AF
Trichosporon asahii 1188 = assay: Antifungal microdilution broth, TA; type: cell-based; details: read-out: MIC TA
[5] = test system: Mycobacterium smegmatis CCM 4622 (ATCC 607); assay: Antimycobacterial microdilution, M. smegmatis; type: cell-based; details: Middlebrook 7H9 with OADC, resazurin; for MIC: Mycolicibacterium smegmatis, read-out: M. smeg. ATCC 607 MIC
[6] = test system: Mycobacterium tuberculosis H37Rv CNCTC My 331/88 (ATCC 27294); assay: Antimycobacterial microdilution MABA, M. tuberculosis; type: cell-based; details: Middlebrook 7H9 with OADC growth supplement, pH = 6.6, MABA; for MIC: Mycobacterium tuberculosis, read-out: Mtb H37Rv ATCC 27294 MIC
[7] = test system: M. avium ssp. avium CNCTC My 80/72 (ATCC 15769); assay: Antimycobacterial microdilution MABA, M. avium; type: cell-based, Mycobacterium avium; details: for MIC: Mycobacterium avium
[8] = test system: M. kansasii CNCTC My 235/80 (ATCC 12478); assay: Antimycobacterial microdilution MABA, M. kansasii; type: cell-based, Mycobacterium kansasii; details: for MIC: Mycobacterium kansasii
[9] = Trichophyton interdigitale, 445, 72 h
[10] = Trichophyton interdigitale, 445, 120 h
[11] = Lichtheimia corymbifera, 272, 24 h
[12] = Lichtheimia corymbifera, 272, 48 h
[13] = Aspergillus fumigatus, 231, 24 h
[14] = Aspergillus fumigatus, 231, 48 h
[15] = Trichosporon asahii, 1188, 24 h
[16] = Trichosporon asahii, 1188, 48 h
[17] = Middlebrook 7H9 with OADC, pH 6.6, MABA

| Structure (SMILES) | MIC (Candida glabrata 20/I; 24 h) [µM] | MIC (Candida glabrata 20/I; 48 h) [µM] | MIC [1, 9] [µM] | MIC [1, 10] [µM] | MIC (Candida krusei E28; E28, 24 h) [µM] | MIC (Candida krusei E28; E28, 48 h) [µM] | MIC [2, 11] [µM] | MIC [2, 12] [µM] | MIC ([3]; ATCC44859, 24 h) [µM] | MIC ([3]; ATCC44859, 48 h) [µM] | MIC (Candida tropicalis 156; Candida tropicalis, 156, 24 h) [µM] | MIC (Candida tropicalis 156; Candida tropicalis, 156, 48 h) [µM] | MIC [4, 13] [µM] | MIC [4, 14] [µM] | MIC (Trichosporon asahii 1188; [15]) [µM] | MIC (Trichosporon asahii 1188; [16]) [µM] | MIC [5] [µg/mL] | Mtb H37Rv ATCC 27294 MIC [6] [µg/mL] | M. kans. ATCC 12478 MIC [8, 17] [µg/mL] | MIC [6] [µg/mL] | other results |
| --- | --- | --- | --- | --- | --- | --- | --- | --- | --- | --- | --- | --- | --- | --- | --- | --- | --- | --- | --- | --- | --- |
| C[C@@H]1[C@H](O)[C@@H](C)/C=C/C=C/C=C/C=C/C=C/C=C/C=C/[C@H](O[C@@H]2O[C@H](C)[C@@H](O)[C@H](N)[C@@H]2O)C[C@@H]2O[C@](O)(C[C@@H](O)C[C@@H](O)[C@H](O)CC[C@@H](O)C[C@@H](O)CC(=O)O[C@H]1C)C[C@H](O)[C@H]2C(=O)O [AMPB, amphotericin B, reference compound] | 0.98 (≈ 0.906 µg/mL) | 1.95 (≈ 1.8 µg/mL) | 1.95 (≈ 1.8 µg/mL) | 1.95 (≈ 1.8 µg/mL) | 1.95 (≈ 1.8 µg/mL) | 1.95 (≈ 1.8 µg/mL) | 7.81 (≈ 7.22 µg/mL) | 7.81 (≈ 7.22 µg/mL) | 0.12 (≈ 0.111 µg/mL) | 0.49 (≈ 0.453 µg/mL) | 1.95 (≈ 1.8 µg/mL) | 1.95 (≈ 1.8 µg/mL) | 1.95 (≈ 1.8 µg/mL) | 1.95 (≈ 1.8 µg/mL) | 0.49 (≈ 0.453 µg/mL) | 0.98 (≈ 0.906 µg/mL) |  |  |  |  |  |
| O=C(O)c1cn(C2CC2)c2cc(N3CCNCC3)c(F)cc2c1=O [CPX, ciprofloxacin, reference compound] |  |  |  |  |  |  |  |  |  |  |  |  |  |  |  |  | 0.195 (≈ 0.589 µM) |  |  |  |  |
| O=C(Nc1cncc(Cl)n1)c1ccccc1O [Compound 3b] |  |  |  |  |  |  |  |  |  |  |  |  |  |  |  |  |  | > 100 | > 100 |  | M. smeg. ATCC 607 MIC [5]: 250 µg/mL; M. avium ATCC 15769 MIC [7, 17]: > 100 µg/mL |
| CCc1ccc(C(=O)Nc2cncc(Cl)n2)cc1 [Compound 3i] |  |  |  |  |  |  |  |  |  |  |  |  |  |  |  |  | ≥ 500 |  |  | > 100 | MIC ([7]; ATCC15769, Middlebrook 7H9 with OADC, pH 6.6, MABA, read-out: M. avium ATCC 15769 MIC): > 100 µg/mL; MIC ([8]; ATCC12478, Middlebrook 7H9 with OADC, pH 6.6, MABA, read-out: M. kans. ATCC 12478 MIC): > 100 µg/mL |
| OC(Cn1cncn1)(Cn1cncn1)c1ccc(F)cc1F [FLU, fluconazole, reference compound] | 31.2 (≈ 9.57 µg/mL) | 250 (≈ 76.6 µg/mL) | 7.81 (≈ 2.39 µg/mL) | 125 (≈ 38.3 µg/mL) | 125 (≈ 38.3 µg/mL) | 250 (≈ 76.6 µg/mL) | > 500 | > 500 | 0.24 (≈ 0.0735 µg/mL) | 0.24 (≈ 0.0735 µg/mL) | > 500 | > 500 | > 500 | > 500 | 250 (≈ 76.6 µg/mL) | 500 (≈ 153 µg/mL) |  |  |  |  |  |
| NNC(=O)c1ccncc1 [INH, isoniazid, reference compound] |  |  |  |  |  |  |  |  |  |  |  |  |  |  |  |  |  | 0.1 to 0.39 | 6.25 to 12.5 | 0.1 to 0.2 (≈ 0.729 to 1.46 µM) | MIC ([7]; ATCC15769, pH 6.6, read-out: M. avium ATCC 15769 MIC): 6.25 to 12.5 µg/mL (≈ 45.6 to 91.1 µM); MIC ([8]; ATCC12478, pH 6.6, read-out: M. kans. ATCC 12478 MIC, Middlebrook 7H9 with OADC, pH 6.6, MABA): 3.13 to 12.5 µg/mL (≈ 22.8 to 91.1 µM) |
